Measurements from US6660721B2, “Anti-HCV nucleoside derivatives” (Hoffmann-la Roche Inc., priority 2001, dated 2003).
pIC50: −log10 of the molar value. Where two headings read alike, the source gives them in different places.

System: HCV replicon RNA in human hepatoma Huh7 cells (cell line 2209-23)
Experiment: HCV Replicon assay (Renilla luciferase reporter, 2209-23 cells)
Assay type: cell-based, Hepatitis C virus
Conditions: for pIC50: Hepatitis C virus, Huh-7, 72 h, read-out: IC50 (HCV Replicon assay)

**Q.** For Nc1nc2c(ncn2[C@@H]2O[C@H](CO)[C@@H](O)[C@H]2F)c(=O)[nH]1 [2′-Deoxy-2′-fluoroguanosine], which “% reduction of replicon level at fixed concentration” value (@ 20 μM, Renilla luciferase HCV replicon cells 2209-23) is on record?
**A.** 62% @ 20

**Q.** How did the pIC50 (Renilla luciferase HCV replicon cells 2209-23, three days incubation) turn out when Nc1ccn([C@@H]2O[C@H](CO)[C@@H](O)[C@H]2F)c(=O)n1 [2′-Deoxy-2′-fluorocytidine] was run?
**A.** 6.13

**Q.** How did the pIC50 turn out when Nc1nc(N)c2ncn([C@@H]3O[C@H](CO)[C@@H](O)[C@H]3F)c2n1 [9-(2-Deoxy-2-fluoro-β-D-ribofuranosyl)-2,6-diaminopurine] was run?
**A.** 5.00
